Test results taken from patent US20080063610A1, “Use of Beta-Homocyclocitral as an Agent Against Bad Breath” (SYMRISE GMBH & CO. KG, priority 2004, published 2008).
Values after ≈ are worked out from the molar mass of the structure shown. Values belong to the compound of their own block, whether it stands above or below them.

Key:
Type in all cases: cell-based
Escherichia coli [1] = experiment: Further tests at 1000 ppm; conditions: concentration of 1000 ppm
fresh morning saliva = experiment: In-vitro test to reduce bad breath (liquid medium inoculated with fresh morning saliva, sniffed by a panel)
Method: In-Vitro Test to Reduce Bad Breath
The test is based on the work of Goldberg and Rosenberg (Production of Oral Malodor in an in vitro System, S. Goldberg and M. Rosenberg, pp.143 -150, in: Bad Breath—A multidisciplinary Approach, Eds: D. van Steenberghe, M. Rosenberg, Leuven University Press, 1996) and has been adapted to improve reproducibility.
A sterile liquid medium inoculated with fresh morning saliva is incubated for a few days at 37° C. and then sniffed by a panel of testers.
An intensive odour characteristic of bad breath has formed. Uninoculated controls have only a faint odour of the medium.
As a control for the tests, Triclosan® (5-chloro-2-(2,4-dichlorophenoxy)phenol) was added to inoculated samples in a concentration of 0.05%.

Pseudomonas aeruginosa = experiment: Minimum inhibiting concentration, serial-dilution test
Method: (§1) Determination of the Minimum Inhibiting Concentration 5 The minimum inhibiting concentration (MIC) of beta-homocyclocitral was determined in a serial-dilution test against various bacteria.

Staphylococcus aureus = experiment: as above
Method: as §1

Veilonella parvula = experiment: as above
Method: as §1

Fusobacterium nucleatum = experiment: as above
Method: as §1

Escherichia coli [2] = experiment: as above
Method: as §1

Streptococcus mutans = experiment: as above
Method: as §1

Porphyromonas gingivalis = experiment: as above
Method: as §1

Prevotella intermedia = experiment: as above
Method: as §1

Pseudomonas aruginosa = experiment: Further tests at 1000 ppm; conditions: concentration of 1000 ppm
[3] = test system: total number of bacteria in the samples of saliva; experiment: Further test: total number of bacteria in samples of saliva; conditions: concentration of 1000 ppm
[4] = 0.05% added to inoculated samples at the start of the test, 37° C., a few days

MIC (Pseudomonas aeruginosa): > 1000 µg/mL | MIC (Staphylococcus aureus): 500 µg/mL (≈ 3010 µM) | MIC (Escherichia coli [2]): > 1000 µg/mL | MIC (Porphyromonas gingivalis): 125 µg/mL (≈ 752 µM) | MIC (Prevotella intermedia; bacteriostatic): 125 µg/mL (≈ 752 µM)
SMILES: CC1=C(CC=O)C(C)(C)CCC1 [beta-homocyclocitral, 2,6,6-trimethyl-1-cyclohexene-1-acetaldehyde]
reduction with regard to Escherichia coli (Escherichia coli [1]): no significant reduction | odour after the incubation period (fresh morning saliva; 0.01% added to inoculated samples): a changed characteristic odour or a mixed odour was discernible in some cases | odour after the incubation period (fresh morning saliva; 0.025% added to inoculated samples): no odour | odour after the incubation period (fresh morning saliva; [4]): a slight characteristic odour is discernible | odour at sensory assessment (fresh morning saliva; 0.05% added to the inoculated medium just one hour before the sensory assessment): unpleasant mixed odour of bad breath and a faint beta-homocyclocitral note | minimum effective concentration (fresh morning saliva; no odour after the incubation period): 0.025% | Type (Pseudomonas aeruginosa): No action up to 1000 ppm | Type (Veilonella parvula): bactericidal action | MIC (Veilonella parvula; bactericidal): 500 µg/mL (≈ 3010 µM) | Type (Fusobacterium nucleatum): bactericidal action | MIC (Fusobacterium nucleatum; bactericidal): 250 µg/mL (≈ 1500 µM) | Type (Escherichia coli [2]): No action up to 1000 ppm | Type (Streptococcus mutans): bactericidal action | MIC (Streptococcus mutans; bactericidal): 500 µg/mL (≈ 3010 µM) | MIC (Prevotella intermedia; bactericidal): 250 µg/mL (≈ 1500 µM) | reduction with regard to Pseudomonas aruginosa (Pseudomonas aruginosa): no significant reduction | reduction of the total number of bacteria in samples of saliva [3]: no significant reduction

SMILES: Oc1cc(Cl)ccc1Oc1ccc(Cl)cc1Cl [Triclosan®, 5-chloro-2-(2,4-dichlorophenoxy)phenol, reference compound]
odour after the incubation period (fresh morning saliva; [4]): same faint odour of medium as the uninoculated samples
